Laboratory results taken from patent publication US20140031227A1, “HERBICIDAL COMPOSITIONS COMPRISING 4-AMINO-3-CHLORO-5-FLUORO-6-(4-CHLORO-2-FLUORO-3-METHOXYPHENYL) PYRIDINE-2-CARBOXYLIC ACID OR A DERIVATIVE THEREOF AND GLYPHOSATE OR GLUFOSINATE” (DOW AGROSCIENCES LLC, priority 2012, published 2014).
Counter-ions that a name gives are not always drawn.

Tests used:
Assay type in all cases: in vivo
[1] = system: SETFA (Setaria faberi Herrm., giant foxtail); assay: Example IV postemergence foliar-applied mixtures, general weed control, greenhouse: SETFA; details: glyphosate DMA salt (Durango DMA) alone
Experimental: (§1) Seeds or nutlets of the desired test plant species were planted in Sun Gro Metro-Mix® 360 planting mixture, which typically has a pH of 6.0 to 6.8 and an organic matter content of about 30 percent, in plastic pots with a surface area of 84.6 square centimeters (cm^2). […] The plants were grown for 7-31 days (d) in a greenhouse with an approximate 15 hour (h) photoperiod which was maintained at about 23-29° C. during the day and 22-28° C. during the night. Nutrients (Peters Excel® 15-5-15 5-Ca 2-Mg) and water were added on a regular basis and supplemental lighting was provided with overhead metal halide 1000-Watt lamps as necessary. The plants were employed for testing when they reached the first, second, or third true leaf stage.
(§2) Treatments consisted of the acid or the benzyl ester of 4-amino-3-chloro-5-fluoro-6-(4-chloro-2-fluoro-3-methoxy-phenyl)pyridine-2-carboxylic acid (Compound A), each formulated as an SC, and various herbicidal components alone and in combination. Forms of compound A were applied on an acid equivalent basis.
(§3) Other herbicidal components were applied on an acid equivalent or active ingredient basis and included the 5-enolpyruvylshikimate-3-phosphate synthase (EPSPS)-inhibiting herbicide, glyphosate dimethylamine salt, formulated as Durango DMA® and the glutamine synthase (GS)-inhibiting herbicide, glufosinate ammonium, formulated as Ignite® 280.
(§4) For treatments comprised of formulated compounds, measured amounts of compounds were placed individually in 25 mL glass vials and diluted in a volume of 1.25% (v/v) Agri-dex crop oil concentrated to obtain 12× stock solutions. […] Application solutions were prepared by adding an appropriate amount of each stock solution (typically 1 mL) and diluted to the appropriate final concentrations with the addition of 10 mL of an aqueous mixture of 1.25% (v/v) Agri-dex crop oil concentrate so that the final spray solutions contained 1.25% (v/v) Agri-dex crop oil concentrate.
(§5) All stock solutions and applications solutions were visually inspected for compound compatibility prior to application. Compound requirements are based upon a 12 mL application volume at a rate of 187 liters per hectare (L/ha). Formulated compounds were applied to the plant material with an overhead Mandel track sprayer equipped with 8002E nozzles calibrated to deliver 187 L/ha over an application area of 0.503 square meters (m^2) at a spray height of 18 to 20 inches (46 to 50 cm) above the average plant canopy height. Control plants were sprayed in the same manner with the solvent blank.
(§6) The treated plants and control plants were placed in a greenhouse as described above and watered by sub-irrigation to prevent wash-off of the test compounds. After approximately 3 weeks, the condition of the test plants as compared with that of the untreated plants was determined visually and scored on a scale of 0 to 100 percent where 0 corresponds to no injury or growth inhibition and 100 corresponds to complete kill.
(§7) Colby's equation was used to determine the herbicidal effects expected from the mixtures (Colby, S. R. 1967. Calculation of the synergistic and antagonistic response of herbicide combinations. Weeds 15:20-22.) .

[2] = system: SORHA (Sorghum halepense (L.) Pers., johnsongrass); assay: Example III postemergence foliar-applied mixtures, row crop weeds (corn, soybean), greenhouse: SORHA; details: glyphosate DMA salt (Durango DMA) alone
Experimental: as §1, with “a soil matrix prepared by mixing a loam or sandy loam soil (e.g., 43 percent silt, 19 percent clay, and 38 percent sand, with” for “Sun Gro Metro-Mix® 360 planting mixture, which typically has”, “about 8.1” for “6.0 to 6.8”, “1.5 percent) and calcareous grit in an 80 to 20 ratio. The soil matrix was contained” for “30 percent,”, “square centimters (cm^2) and a volume of 560 cubic” for “square”, “(cm^3).” for “(cm^2).”
Treatments consisted of the acid or esters of 4-amino-3-chloro-5-fluoro-6-(4-chloro-2-fluoro-3-methoxy-phenyl)pyridine-2-carboxylic acid (Compound A), each formulated as an
SC (suspension concentrate), and various herbicidal components alone and in combination. Forms of compound A were applied on an acid equivalent basis.
as §3
For treatments comprised of formulated compounds, measured amounts of compounds were placed individually in 25 mL glass vials and diluted in a volume of 1.5% (v/v) Agri-dex® crop oil concentrate to obtain 6× stock solutions. […] Application solutions were prepared by adding an appropriate amount of each stock solution (typically 2 mL) and diluted to the appropriate final concentrations with the addition of an aqueous mixture of 1.5% (v/v) crop oil concentrate and water so that the final spray solutions contained 1.25% (v/v) crop oil concentrate.
as §5
as §6, with “2” for “3”
The following equation was used to calculate the expected activity of mixtures containing two active ingredients, A and B: […]

[3] = system: DIGSA (Digitaria sanguinalis (L.) Scop., large crabgrass); assay: Example I postemergence foliar-applied mixtures, direct seeded rice weeds, greenhouse: DIGSA; details: glyphosate DMA salt (Durango DMA) alone, 210 gae/ha
Experimental: (§8) Seeds or nutlets of the desired test plant species were planted in a soil matrix prepared by mixing a loam or sandy loam soil (e.g., 28.6 percent silt, 18.8 percent clay, and 52.6 percent sand, with a pH of about 5.8 and an organic matter content of about 1.8 percent) and calcareous grit in an 80 to 20 ratio. The soil matrix was contained in plastic pots with a volume of 1 quart and a surface area of 83.6 square centimeters (cm^2). […] The plants were grown for 8-22 days in a greenhouse with an approximate 14 hr photoperiod which was maintained at about 29° C. during the day and 26° C. during the night. Nutrients (Peters Excel® 15-5-15 5-Ca 2-Mg and iron chelate) were applied in the irrigation solution as needed and water was added on a regular basis. Supplemental lighting was provided with overhead metal halide 1000-Watt lamps as necessary. The plants were employed for testing when they reached the first through fourth true leaf stage.
as §2, with “esters” for “the benzyl ester”, “SC (suspension concentrate),” for “SC,”
(§9) For treatments comprised of formulated compounds, measured amounts of compounds were placed individually in 25 mL glass vials and diluted in a volume of 1.25% (v/v) Agri-Dex® crop oil concentrated to obtain 12× stock solutions. […] Application solutions were prepared by adding an appropriate amount of each stock solution (e.g., 1 mL) and diluted to the appropriate final concentrations with the addition of 10 mL of an aqueous mixture of 1.25% (v/v) crop oil concentrate so that the final spray solutions contained 1.25+/−0.05% (v/v) crop oil concentrate.
(§10) All stock solutions and applications solutions were visually inspected for compound compatibility prior to application. Spray solutions were applied to the plant material with an overhead Mandel track sprayer equipped with a 8002E nozzles calibrated to deliver 187 L/ha over an application area of 0.503 m^2 at a spray height of 18 to 20 inches (46 to 50 cm) above average plant canopy height. Control plants were sprayed in the same manner with the solvent blank.
as §6
(§11) Colby's equation was used to determine the herbicidal effects expected from the mixtures (Colby, S. R. 1967. Calculation of the synergistic and antagonistic response of herbicide combinations. Weeds 15:20-22.).

[4] = system: CHEAL (Chenopodium album L., common lambsquarters); assay: Example IV postemergence foliar-applied mixtures, general weed control, greenhouse: CHEAL; details: glyphosate DMA salt (Durango DMA) alone
Experimental: as §1, §2, §3, §4, §5, §6, §7

[5] = system: VIOTR (Viola tricolor L., wild violet); assay: Example IV postemergence foliar-applied mixtures, general weed control, greenhouse: VIOTR; details: glyphosate DMA salt (Durango DMA) alone
Experimental: as §1, §2, §3, §4
All stock solutions and applications solutions were visually inspected for compound compatibility prior to application. Compound requirements are based upon a 12 mL application volume at a rate of 187 liters per hectare (L/ha). […]
as §6, with “kill. […]” for “kill.”

[6] = system: IPOHE (Ipomoea hederacea Jacq., ivyleaf morningglory); assay: Example I postemergence foliar-applied mixtures, direct seeded rice weeds, greenhouse: IPOHE; details: glyphosate DMA salt (Durango DMA) alone, 105 gae/ha
Experimental: as §8
as §2, with “esters” for “the benzyl ester”, “SC (suspension concentrate),” for “SC,”
as §9, §10, §6, §11

[7] = system: DIGSA (Digitaria sanguinalis (L.) Scop., large crabgrass); assay: Example IV postemergence foliar-applied mixtures, general weed control, greenhouse: DIGSA; details: glyphosate DMA salt (Durango DMA) alone, 210 gae/ha
Experimental: as §1, §2, §3, §4, §5, §6, §7

## O=C(O)CNCP(=O)(O)O [Glyphosate DMA Salt, N-(phosphonomethyl)glycine, reference compound]
[1]; 210 gae/ha
  VisualWeed Control (%) - 18 DAA SETFA Obs: 10%
[1]; 420 gae/ha
  VisualWeed Control (%) - 18 DAA SETFA Obs: 90%
[2]; 105 gae/ha
  Visual Weed Control (%) - 16 DAA SORHA Obs: 0%
[2]; 210 gae/ha
  Visual Weed Control (%) - 16 DAA SORHA Obs: 10%
[2]; 420 gae/ha
  Visual Weed Control (%) - 16 DAA SORHA Obs: 25%
[3]
  Visual Weed Control (%) - 21 DAA DIGSA Obs: 75%
[4]; 420 gae/ha
  Visual Weed Control (%) - 18 DAA CHEAL Obs: 0%
[4]; 840 gae/ha
  Visual Weed Control (%) - 18 DAA CHEAL Obs: 30%
[5]; 210 gae/ha
  Visual Weed Control (%) - 18 DAA VIOTR Obs: 60%
[5]; 420 gae/ha
  Visual Weed Control (%) - 18 DAA VIOTR Obs: 85%
[6]
  Visual Weed Control (%) - 21 DAA IPOHE Obs: 30%
[7]
  Visual Weed Control (%) - 18 DAA DIGSA Obs: 40%
